Source: ChEMBL document CHEMBL1201862, “PubChem BioAssay data set” (2004)
Each block holds one molecule with its values, some of them ahead of it. The source made the active and inactive calls.

Experiments:
[1] = target: Melanin-concentrating hormone receptor 1 (Homo sapiens, UniProt Q99705); assay: Fluorescence-based counterscreen for antagonists of the G-protein coupled receptor 7 (GPR7): cell-based high throughput dose response assay to identify antagonists of the melanin-concentrating hormone receptor 1 (MCHR1).; type: functional
Chain of Melanin-concentrating hormone receptor 1 (Q99705 whole entry): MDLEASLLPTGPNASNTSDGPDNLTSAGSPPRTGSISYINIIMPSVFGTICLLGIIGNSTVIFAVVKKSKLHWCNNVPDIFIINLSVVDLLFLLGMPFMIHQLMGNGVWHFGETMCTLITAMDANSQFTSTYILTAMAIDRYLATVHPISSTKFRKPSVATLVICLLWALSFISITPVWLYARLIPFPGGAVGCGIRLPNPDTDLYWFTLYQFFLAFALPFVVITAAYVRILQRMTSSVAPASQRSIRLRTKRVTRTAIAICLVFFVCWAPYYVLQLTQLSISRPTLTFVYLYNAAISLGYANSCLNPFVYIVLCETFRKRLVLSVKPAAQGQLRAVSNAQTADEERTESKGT

Protein Rev [2] = target: Protein Rev (Human immunodeficiency virus type 1 group M subtype B (isolate WMJ22)(HIV-1), UniProt P05866); assay: HIV-1 Rev-RRE RNA binding disruptors, dose response, biochemical, protein-RNA interaction (AID 842); design: species or system Human immunodeficiency virus 1
Chain of Protein Rev (Human immunodeficiency virus type 1 group M subtype B (isolate WMJ22)(HIV-1), UniProt P05866) (P05866 whole entry): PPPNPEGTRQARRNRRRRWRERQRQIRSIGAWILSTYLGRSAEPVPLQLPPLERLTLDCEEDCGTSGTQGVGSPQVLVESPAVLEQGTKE

Vero = assay: host cell cytotoxicity of antiviral hits, dose response, cytotoxicity control for West Nile virus antiviral project, secondary assay (AID 1650); type: functional; conditions: Chlorocebus sabaeus
[3] = target: T1, Short transient receptor potential channel 4 (Mus musculus, UniProt Q9QUQ5); assay: mouse TRPC4 channel inhibitors, dose response, cell-based, HEK293 TRPC4/mu-opioid, Fluo-4 calcium (AID 434942); type: functional;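 further: potency of inhibitors blocking the TRPC4 calcium response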
T1 sequence (Q9QUQ5 whole entry): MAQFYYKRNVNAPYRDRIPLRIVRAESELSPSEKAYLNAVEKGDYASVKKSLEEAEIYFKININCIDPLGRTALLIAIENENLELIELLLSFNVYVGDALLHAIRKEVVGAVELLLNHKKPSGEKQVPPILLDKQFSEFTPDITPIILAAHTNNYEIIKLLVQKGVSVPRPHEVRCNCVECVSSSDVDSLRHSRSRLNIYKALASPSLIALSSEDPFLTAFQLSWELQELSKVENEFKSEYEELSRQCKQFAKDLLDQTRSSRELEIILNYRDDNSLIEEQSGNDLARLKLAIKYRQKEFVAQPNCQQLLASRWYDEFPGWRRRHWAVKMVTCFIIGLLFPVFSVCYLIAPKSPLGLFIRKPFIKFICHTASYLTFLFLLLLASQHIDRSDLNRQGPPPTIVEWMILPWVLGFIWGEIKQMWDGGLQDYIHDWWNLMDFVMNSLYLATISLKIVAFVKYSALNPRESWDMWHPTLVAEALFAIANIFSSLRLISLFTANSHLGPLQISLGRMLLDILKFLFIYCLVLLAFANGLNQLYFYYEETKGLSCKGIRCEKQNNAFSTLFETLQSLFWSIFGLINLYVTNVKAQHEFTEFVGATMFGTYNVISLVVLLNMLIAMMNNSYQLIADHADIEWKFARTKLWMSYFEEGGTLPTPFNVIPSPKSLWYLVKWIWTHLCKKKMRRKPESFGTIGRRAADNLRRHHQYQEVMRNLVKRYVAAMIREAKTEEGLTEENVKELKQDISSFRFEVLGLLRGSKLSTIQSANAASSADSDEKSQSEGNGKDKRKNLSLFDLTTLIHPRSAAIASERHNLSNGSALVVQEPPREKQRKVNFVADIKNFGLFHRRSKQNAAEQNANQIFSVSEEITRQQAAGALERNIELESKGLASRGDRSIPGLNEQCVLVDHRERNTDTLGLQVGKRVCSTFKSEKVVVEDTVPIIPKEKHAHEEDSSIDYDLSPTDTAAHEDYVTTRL

[4] = target: T2, DNA repair and recombination protein RAD54-like (Homo sapiens, UniProt Q92698); assay: inhibitors of human RAD54 branch migration, confirmation, biochemical, fluorescence, cherry-picked samples, dose series (AID 651657); type: functional
T2 sequence (Q92698 whole entry): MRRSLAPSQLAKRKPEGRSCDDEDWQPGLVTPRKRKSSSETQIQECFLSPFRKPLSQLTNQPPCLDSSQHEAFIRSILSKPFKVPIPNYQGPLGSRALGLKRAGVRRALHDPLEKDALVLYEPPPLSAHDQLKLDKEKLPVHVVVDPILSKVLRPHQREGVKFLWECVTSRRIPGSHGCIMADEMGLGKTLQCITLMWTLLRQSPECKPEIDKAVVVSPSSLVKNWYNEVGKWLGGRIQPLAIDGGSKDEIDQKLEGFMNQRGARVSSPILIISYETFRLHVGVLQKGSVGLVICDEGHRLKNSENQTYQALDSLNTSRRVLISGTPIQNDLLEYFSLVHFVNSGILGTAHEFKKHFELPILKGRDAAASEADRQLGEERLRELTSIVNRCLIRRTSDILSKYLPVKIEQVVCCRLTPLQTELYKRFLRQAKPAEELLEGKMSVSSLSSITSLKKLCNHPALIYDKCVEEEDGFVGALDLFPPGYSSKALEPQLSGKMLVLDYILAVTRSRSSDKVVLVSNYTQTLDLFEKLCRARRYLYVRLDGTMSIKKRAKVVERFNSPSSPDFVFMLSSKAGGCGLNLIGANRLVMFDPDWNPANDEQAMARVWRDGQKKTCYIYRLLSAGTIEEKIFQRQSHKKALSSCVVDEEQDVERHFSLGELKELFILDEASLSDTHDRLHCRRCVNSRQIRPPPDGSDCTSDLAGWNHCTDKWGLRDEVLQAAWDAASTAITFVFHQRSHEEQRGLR

[5] = target: T3, DNA repair protein RAD52 homolog (Homo sapiens, UniProt P43351); type: functional, biochemical
T3 sequence (P43351 whole entry): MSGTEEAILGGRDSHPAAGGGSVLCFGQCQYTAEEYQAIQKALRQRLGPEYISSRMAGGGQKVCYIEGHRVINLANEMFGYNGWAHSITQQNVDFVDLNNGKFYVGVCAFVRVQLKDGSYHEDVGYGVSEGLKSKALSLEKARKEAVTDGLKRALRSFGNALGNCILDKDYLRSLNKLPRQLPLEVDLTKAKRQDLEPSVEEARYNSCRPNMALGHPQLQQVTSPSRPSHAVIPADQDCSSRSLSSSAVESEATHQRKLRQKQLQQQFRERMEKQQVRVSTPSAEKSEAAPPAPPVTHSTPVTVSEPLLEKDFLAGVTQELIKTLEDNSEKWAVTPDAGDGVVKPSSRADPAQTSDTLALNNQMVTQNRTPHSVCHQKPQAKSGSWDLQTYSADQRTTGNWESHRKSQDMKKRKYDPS

Tumor necrosis factor = Tumor necrosis factor (Homo sapiens, UniProt P01375); assay: TNFa-triggered NF-kB activation inhibitors, SAR follow-up, cell-based, revised (AID 2337); type: functional
Chain of Tumor necrosis factor (P01375 whole entry, the tested form may be a part): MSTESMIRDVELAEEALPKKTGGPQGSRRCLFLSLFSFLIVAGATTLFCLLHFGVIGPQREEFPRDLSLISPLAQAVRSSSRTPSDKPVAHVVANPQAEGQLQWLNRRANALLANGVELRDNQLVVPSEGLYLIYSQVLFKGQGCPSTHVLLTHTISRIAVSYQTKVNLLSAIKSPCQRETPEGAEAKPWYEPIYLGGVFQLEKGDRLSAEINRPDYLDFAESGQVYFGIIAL

[6] = target: Nucleotide-binding oligomerization domain-containing protein 1 (Homo sapiens, UniProt Q9Y239); assay: NOD1 signaling inhibitors, SAR follow-up, revised (AID 2333); type: functional
[7] = target: Nucleotide-binding oligomerization domain-containing protein 2 (Homo sapiens, UniProt Q9HC29); assay: PubChem AID 2334; type: functional
Chain of Nucleotide-binding oligomerization domain-containing protein 2 (Q9HC29 whole entry, the tested form may be a part): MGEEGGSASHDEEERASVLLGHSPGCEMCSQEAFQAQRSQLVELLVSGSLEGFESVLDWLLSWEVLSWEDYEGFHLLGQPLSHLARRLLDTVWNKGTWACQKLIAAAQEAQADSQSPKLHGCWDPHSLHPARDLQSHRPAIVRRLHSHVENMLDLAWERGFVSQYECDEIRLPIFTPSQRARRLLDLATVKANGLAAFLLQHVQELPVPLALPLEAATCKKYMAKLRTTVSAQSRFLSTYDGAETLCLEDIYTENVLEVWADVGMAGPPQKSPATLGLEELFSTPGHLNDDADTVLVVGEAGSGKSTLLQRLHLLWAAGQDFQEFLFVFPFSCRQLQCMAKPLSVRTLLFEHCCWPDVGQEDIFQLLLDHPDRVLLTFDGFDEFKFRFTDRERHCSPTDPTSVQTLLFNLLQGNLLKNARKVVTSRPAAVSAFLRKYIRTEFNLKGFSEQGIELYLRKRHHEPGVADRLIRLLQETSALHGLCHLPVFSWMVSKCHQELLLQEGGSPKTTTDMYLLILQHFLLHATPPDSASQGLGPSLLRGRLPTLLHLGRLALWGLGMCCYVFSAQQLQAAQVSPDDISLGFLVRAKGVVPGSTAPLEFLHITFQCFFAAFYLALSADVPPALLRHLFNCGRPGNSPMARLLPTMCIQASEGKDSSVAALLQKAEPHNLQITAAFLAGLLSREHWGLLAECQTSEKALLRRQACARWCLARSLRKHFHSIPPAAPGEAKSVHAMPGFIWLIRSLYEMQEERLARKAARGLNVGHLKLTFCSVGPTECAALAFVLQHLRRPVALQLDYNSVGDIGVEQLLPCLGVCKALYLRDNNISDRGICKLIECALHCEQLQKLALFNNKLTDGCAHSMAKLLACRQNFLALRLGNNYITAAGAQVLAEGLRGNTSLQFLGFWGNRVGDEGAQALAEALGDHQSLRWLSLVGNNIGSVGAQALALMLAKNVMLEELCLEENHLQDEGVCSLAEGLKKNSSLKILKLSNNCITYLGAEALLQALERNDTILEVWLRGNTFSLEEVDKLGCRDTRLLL

HEK293 = assay: cells; conditions: Homo sapiens;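 further: cells exposed to compound for 14 hours overnight before viability readout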
Bcl-2-like protein 10 = Bcl-2-like protein 10 (Homo sapiens, UniProt Q9HD36); assay: displacers of TR3 peptide from Bcl-B, primary screen, selectivity assay for Bfl-1 inhibitor project, biochemical, fluorescence polarization, FITC-TR3 peptide (AID 748);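 further: fluorescence polarization from a fluorescein-labelled TR3 peptide binding purified Bcl-B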
Chain of Bcl-2-like protein 10 (Q9HD36 whole entry): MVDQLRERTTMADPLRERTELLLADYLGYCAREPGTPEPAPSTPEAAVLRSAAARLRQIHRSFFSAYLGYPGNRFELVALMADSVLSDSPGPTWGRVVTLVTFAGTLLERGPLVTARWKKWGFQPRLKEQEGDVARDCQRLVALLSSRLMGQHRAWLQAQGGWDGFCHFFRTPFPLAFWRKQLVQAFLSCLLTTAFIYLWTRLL

[8] = target: T4, Eukaryotic translation initiation factor 2-alpha kinase 3 (Homo sapiens, UniProt Q9NZJ5); assay: Dose response cell-based high-throughput screening assay to measure PERK inhibition. [Related pubchem assays: 1416 ]; type: functional
T4 sequence (Q9NZJ5 whole entry): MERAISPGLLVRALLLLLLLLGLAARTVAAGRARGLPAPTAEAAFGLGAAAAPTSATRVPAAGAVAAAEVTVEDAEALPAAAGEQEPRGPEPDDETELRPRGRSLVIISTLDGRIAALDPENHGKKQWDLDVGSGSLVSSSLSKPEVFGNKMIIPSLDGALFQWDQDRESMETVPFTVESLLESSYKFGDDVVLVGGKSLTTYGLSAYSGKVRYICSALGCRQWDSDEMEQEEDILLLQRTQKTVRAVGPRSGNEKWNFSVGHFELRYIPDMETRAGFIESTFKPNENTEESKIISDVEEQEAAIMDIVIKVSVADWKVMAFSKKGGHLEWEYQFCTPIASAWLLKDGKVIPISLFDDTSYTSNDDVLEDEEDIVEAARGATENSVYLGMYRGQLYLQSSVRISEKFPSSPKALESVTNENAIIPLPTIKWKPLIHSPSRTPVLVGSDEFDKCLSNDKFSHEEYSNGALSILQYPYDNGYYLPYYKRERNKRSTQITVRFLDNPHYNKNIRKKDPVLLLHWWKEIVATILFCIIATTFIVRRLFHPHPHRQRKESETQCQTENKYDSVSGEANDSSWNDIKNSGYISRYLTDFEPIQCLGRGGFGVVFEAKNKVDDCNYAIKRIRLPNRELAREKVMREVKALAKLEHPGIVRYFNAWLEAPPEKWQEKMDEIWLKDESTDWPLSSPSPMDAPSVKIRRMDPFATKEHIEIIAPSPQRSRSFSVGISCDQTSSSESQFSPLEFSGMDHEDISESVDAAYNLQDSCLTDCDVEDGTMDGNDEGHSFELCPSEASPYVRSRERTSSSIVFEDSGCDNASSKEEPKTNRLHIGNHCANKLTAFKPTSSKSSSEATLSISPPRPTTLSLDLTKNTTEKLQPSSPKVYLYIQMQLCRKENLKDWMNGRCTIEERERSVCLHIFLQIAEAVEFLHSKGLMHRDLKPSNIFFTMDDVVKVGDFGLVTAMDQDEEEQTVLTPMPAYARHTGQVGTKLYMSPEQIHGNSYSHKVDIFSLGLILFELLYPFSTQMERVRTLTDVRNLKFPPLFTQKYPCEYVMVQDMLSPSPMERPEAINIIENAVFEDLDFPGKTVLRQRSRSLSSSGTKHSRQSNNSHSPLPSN

[9] = target: T4, Eukaryotic translation initiation factor 2-alpha kinase 3; assay: Counterscreen assay for PERK inhibitors: Dose response cell-based high throughput screening assay to measure inhibition of PERK at 6 hours. [Related pubchem assays: 1522, 1416 ]; type: functional
Protein Rev [10] = target: Protein Rev (Human immunodeficiency virus type 1 group M subtype B (isolate HXB2)(HIV-1), UniProt P04618); assay: inhibitors of Rev binding to RRE RNA, dose response, biochemical, fluorescence polarization, HIV-1 (AID 434976); design: species or system Human immunodeficiency virus 1
Chain of Protein Rev (Human immunodeficiency virus type 1 group M subtype B (isolate HXB2)(HIV-1), UniProt P04618) (P04618 whole entry): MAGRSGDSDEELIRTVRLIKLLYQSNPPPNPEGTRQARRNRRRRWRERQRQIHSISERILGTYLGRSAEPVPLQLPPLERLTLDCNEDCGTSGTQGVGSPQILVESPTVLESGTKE

[11] = target: Female germline-specific tumor suppressor gld-1 (Caenorhabditis elegans, UniProt Q17339); assay: inhibitors of GLD-1 binding to TGE RNA, dose response, biochemical, fluorescence polarization, C. elegans (AID 2802);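 further: fluorescence polarization of labeled TGE RNA bound by purified gld-1 protein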
Chain of Female germline-specific tumor suppressor gld-1 (Q17339 whole entry): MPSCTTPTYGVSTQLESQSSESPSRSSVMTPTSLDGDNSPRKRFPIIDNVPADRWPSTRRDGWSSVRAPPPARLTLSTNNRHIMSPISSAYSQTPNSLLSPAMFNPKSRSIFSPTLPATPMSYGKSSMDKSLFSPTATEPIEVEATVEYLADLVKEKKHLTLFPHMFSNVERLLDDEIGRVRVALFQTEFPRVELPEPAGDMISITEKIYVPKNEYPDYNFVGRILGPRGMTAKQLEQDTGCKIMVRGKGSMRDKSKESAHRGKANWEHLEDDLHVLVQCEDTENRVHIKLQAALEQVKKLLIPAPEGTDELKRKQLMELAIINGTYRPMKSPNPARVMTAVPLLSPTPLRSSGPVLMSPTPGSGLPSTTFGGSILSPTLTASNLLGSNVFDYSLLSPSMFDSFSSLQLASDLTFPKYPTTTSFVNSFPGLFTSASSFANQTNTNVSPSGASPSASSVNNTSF

[12] = target: T5, Polyadenylate-binding protein 1 (Homo sapiens, UniProt P11940); assay: PABP1 MLLE–PAM2 interaction inhibitors, dose response, miRNA deadenylation inhibitor project, biochemical, fluorescence polarization, Cy5-PAM2 peptide, secondary (AID 602260); type: functional; conditions: read-out: IC50_Mean
T5 sequence (P11940 whole entry): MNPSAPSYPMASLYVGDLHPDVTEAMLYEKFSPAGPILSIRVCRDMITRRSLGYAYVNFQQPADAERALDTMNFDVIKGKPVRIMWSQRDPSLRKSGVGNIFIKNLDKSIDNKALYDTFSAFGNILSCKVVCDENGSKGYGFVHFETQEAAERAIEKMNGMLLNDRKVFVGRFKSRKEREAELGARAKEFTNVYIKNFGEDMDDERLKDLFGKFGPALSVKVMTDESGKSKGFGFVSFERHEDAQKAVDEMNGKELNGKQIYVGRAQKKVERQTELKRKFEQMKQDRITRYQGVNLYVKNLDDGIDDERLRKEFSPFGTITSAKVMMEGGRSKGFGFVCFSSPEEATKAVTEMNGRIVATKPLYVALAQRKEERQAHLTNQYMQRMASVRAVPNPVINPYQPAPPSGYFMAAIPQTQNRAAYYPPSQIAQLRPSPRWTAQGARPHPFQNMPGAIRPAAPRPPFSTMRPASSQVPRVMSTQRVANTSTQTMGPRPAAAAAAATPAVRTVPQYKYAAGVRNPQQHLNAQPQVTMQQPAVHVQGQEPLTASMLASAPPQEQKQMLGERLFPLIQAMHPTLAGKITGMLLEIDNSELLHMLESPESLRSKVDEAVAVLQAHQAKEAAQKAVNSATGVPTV

[13] = target: T5, Polyadenylate-binding protein 1; assay: PABP1 MLLE–PAM2 binding inhibitor potency, dose response, biochemical, fluorescence polarization, FITC-PAM2 peptide (AID 602259); type: functional; conditions: read-out: IC50_Mean
[14] = target: Protein phosphatase methylesterase 1 (Homo sapiens, UniProt Q9Y570); assay: PME-1 inhibitor potency by in-gel ABPP, dose response, selectivity assay for PME-1 inhibitor project, cell lysate, mouse brain cytosol, FP-rhodamine, panel member PME-1 Assay Panel member description: Inhibition of endogenously expressed PME-1 (AID 2366)
Chain of Protein phosphatase methylesterase 1 (Q9Y570 whole entry): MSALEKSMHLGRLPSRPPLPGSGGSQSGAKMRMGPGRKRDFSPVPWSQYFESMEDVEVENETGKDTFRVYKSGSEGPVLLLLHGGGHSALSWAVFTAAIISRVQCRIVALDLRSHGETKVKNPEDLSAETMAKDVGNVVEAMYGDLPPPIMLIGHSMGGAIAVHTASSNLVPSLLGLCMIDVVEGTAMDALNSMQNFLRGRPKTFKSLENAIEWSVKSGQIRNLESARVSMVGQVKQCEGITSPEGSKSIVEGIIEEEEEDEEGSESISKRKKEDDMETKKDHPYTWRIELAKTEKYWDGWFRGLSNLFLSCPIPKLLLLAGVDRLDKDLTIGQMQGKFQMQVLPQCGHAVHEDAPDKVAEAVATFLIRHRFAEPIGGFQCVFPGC

IC50 [1]: 11.2 µM (not active)
SMILES: CCN(CC)CCNC(=O)CCc1c(C)nc2c(c(C)nn2-c2ccc(C)cc2)c1C

SMILES: CCc1ccc2nc3nc(C)cc(C)c3c(N)c2c1
IC50 (Protein Rev [2]): 58.8 µM (not active)
CC50 (Vero): 21.6 µM (active)
EC50 [3]: 3.35 µM (active)
AC50 [4]: 9.59 µM (active)
AC50 [5]: 3.58 µM (active)

SMILES: CCOC(=O)c1c(NC(=O)CN2CCOCC2)sc2c1CC(C)(C)OC2
IC50 (Tumor necrosis factor): > 20 µM (inactive)
IC50 [6]: > 20 µM (inactive)
IC50 [7]: > 20 µM (inactive)
IC50 (HEK293): > 20 µM (inactive)

IC50 (Bcl-2-like protein 10): 70.4 µM (inactive)
SMILES: O=C(C[n+]1ccc(C(=O)NN=Cc2ccc(O)cc2)cc1)c1ccccc1

EC50 [8]: > 55.7 µM (not active)
EC50 [9]: > 55.7 µM (not active)
SMILES: Cn1c(=O)c2c(SCc3ccccc3)nc(-c3ccco3)nc2n(C)c1=O

SMILES: Nc1nnnn1/N=C/c1cc(Cl)ccc1O
IC50 (Protein Rev [10]): > 75.3 µM (not active)
IC50 [11]: 6.2 µM (active)
IC50 [12]: 35.1 µM (inactive)
IC50 [13]: 38.8 µM (inactive)

IC50 [14]: > 20 µM (inactive)
SMILES: CS(=O)(=O)/C(C#N)=C/c1cccn1S(=O)(=O)c1cccc2ccccc12
